# ± gives the standard deviation of the averaged measurements.
# Tests used:
# [1] = test system: UT-SCC-24A; experiment: maximal % inhibition of viability relative to DMSO; higher = stronger effect; conditions: treatment time: 3 days
# Protocol: (§1)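 HNSCC cell lines (500 cells/well, 384-well) were cultured on plastic, on top of (2D) or embedded (3D) in Matrigel or human leiomyoma matrix Myogel (500 ug/mL; Myogel 3D mixed with rat collagen I). Cells were treated for 3 days with 5 ten-fold concentrations of each drug, and viability was read by CellTiter-Glo. Viability was normalised to DMSO (0% inhibition) and 100 uM benzethonium chloride (100% inhibition) controls and fitted with the FIMM DSRT pipeline to give IC50 (nM), maximal % inhibition and the drug sensitivity score (DSS). Suffixes _1/_2/_3 on drug names are replicates.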
# [2] = test system: UT-SCC-106A; experiment: drug sensitivity score (DSS); higher = more sensitive; extreme values may be limits of the assay; conditions: treatment time: 3 days
# Summary of the method: (§2)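 Viability of HPV-negative HNSCC cell lines was measured by CellTiter-Glo 2.0 luminescence. Cells were seeded at 500 cells/well in 384-well plates on plastic, on Matrigel- or Myogel-coated wells (500 µg/mL), or embedded in Matrigel or Myogel plus rat collagen I, then given compounds at five 10-fold concentrations for 3 days, with signals normalised to vehicle (0.1% DMSO) and cell-killing control wells. Fitting of percent-inhibition dose–response curves in the FIMM pipeline yielded IC50, maximal inhibition and drug sensitivity score.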
# [3] = test system: UT-SCC-14; experiment: as above; conditions: treatment time: 3 days
# Summary of the method: as §2
# [4] = test system: UT-SCC-24B; experiment: as above; conditions: treatment time: 3 days
# Summary of the method: as §2
# [5] = test system: UT-SCC-28; experiment: as above; conditions: treatment time: 3 days
# Summary of the method: as §2
# [6] = test system: UT-SCC-40; experiment: as above; conditions: treatment time: 3 days
# Summary of the method: as §2
# [7] = test system: UT-SCC-42A; experiment: as above; conditions: treatment time: 3 days
# Summary of the method: as §2
# [8] = test system: UT-SCC-42B; experiment: as above; conditions: treatment time: 3 days
# Summary of the method: as §2
# [9] = test system: UT-SCC-44; experiment: as above; conditions: treatment time: 3 days
# Summary of the method: as §2
# [10] = test system: UT-SCC-73; experiment: as above; conditions: treatment time: 3 days
# Summary of the method: as §2
# [11] = test system: UT-SCC-81; experiment: as above; conditions: treatment time: 3 days
# Summary of the method: as §2
# [12] = test system: UT-SCC-8; experiment: as above; conditions: treatment time: 3 days
# Summary of the method: as §2
# [13] = test system: UT-SCC-28; experiment: relative IC50 (midpoint of the fitted curve; maximal inhibition may be below 50%); higher = less potent; conditions: culture condition: plastic 2D (no matrix); treatment time: 3 days
# Summary of the method: as §2
# [14] = test system: UT-SCC-42A; experiment: as above; conditions: treatment time: 3 days
# Summary of the method: as §2
# [15] = test system: UT-SCC-81; experiment: as above; conditions: treatment time: 3 days
# Summary of the method: as §2
# [16] = test system: UT-SCC-24A; experiment: relative IC50 (midpoint of the fitted curve; maximal inhibition may be below 50%); higher = less potent; conditions: treatment time: 3 days
# Protocol: as §1
# [17] = culture condition: embedded in Matrigel
# [18] = culture condition: embedded in Myogel + collagen I
# [19] = culture condition: on top of Matrigel
# [20] = culture condition: on top of Myogel
# [21] = culture condition: plastic 2D (no matrix)
smiles,measurement,setting,value
CO[C@H]1C[C@@H]2CC[C@@H](C)[C@@](O)(O2)C(=O)C(=O)N2CCCC[C@H]2C(=O)O[C@H]([C@H](C)C[C@@H]2CC[C@@H](OC(=O)C(C)(CO)CO)[C@H](OC)C2)CC(=O)[C@H](C)/C=C(\C)[C@@H](O)[C@@H](OC)C(=O)[C@H](C)C[C@H](C)/C=C/C=C/C=C/1C [Temsirolimus],maximal % inhibition of viability,[1]; [17],46.8 ± 44%
same,maximal % inhibition of viability,[1]; [18],40.8 ± 6.7%
same,maximal % inhibition of viability,[1]; [19],33.3 ± 6.1%
same,maximal % inhibition of viability,[1]; [20],28.7 ± 1.9%
same,maximal % inhibition of viability,[1]; [21],33.8 ± 2.7%
same,drug sensitivity score,[2]; [17],6.03 ± 1.3 DSS
same,drug sensitivity score,[2]; [18],5.33 ± 1.3 DSS
same,drug sensitivity score,[2]; [19],5.93 ± 1 DSS
same,drug sensitivity score,[2]; [20],3.33 ± 0.21 DSS
same,drug sensitivity score,[2]; [21],7.6 ± 0.85 DSS
same,drug sensitivity score,[3]; [17],15.4 ± 0.23 DSS
same,drug sensitivity score,[3]; [18],14 ± 1.9 DSS
same,drug sensitivity score,[3]; [19],13.3 ± 0.66 DSS
same,drug sensitivity score,[3]; [20],13.7 ± 1.3 DSS
same,drug sensitivity score,[3]; [21],13.1 ± 2.3 DSS
same,drug sensitivity score,[4]; [17],5.07 ± 3.1 DSS
same,drug sensitivity score,[4]; [18],11 ± 2.6 DSS
same,drug sensitivity score,[4]; [19],4.3 ± 1.7 DSS
same,drug sensitivity score,[4]; [20],6.37 ± 1.4 DSS
same,drug sensitivity score,[4]; [21],4.77 ± 1.2 DSS
same,drug sensitivity score,[5]; [17],4.9 ± 2.9 DSS
same,drug sensitivity score,[5]; [18],4.77 ± 3.2 DSS
same,drug sensitivity score,[5]; [19],8.37 ± 2.5 DSS
same,drug sensitivity score,[5]; [21],8.8 ± 1.3 DSS
same,drug sensitivity score,[6]; [17],6.03 ± 2 DSS
same,drug sensitivity score,[6]; [18],6.8 ± 2.6 DSS
same,drug sensitivity score,[6]; [19],4.17 ± 1.6 DSS
same,drug sensitivity score,[6]; [20],4.53 ± 1.1 DSS
same,drug sensitivity score,[6]; [21],3.6 ± 1 DSS
same,drug sensitivity score,[7]; [17],4.67 ± 1.3 DSS
same,drug sensitivity score,[7]; [18],5.23 ± 3.3 DSS
same,drug sensitivity score,[7]; [19],5.87 ± 1.4 DSS
same,drug sensitivity score,[7]; [20],6.4 ± 0.35 DSS
same,drug sensitivity score,[7]; [21],4.5 ± 1.1 DSS
same,drug sensitivity score,[8]; [17],4 ± 6 DSS
same,drug sensitivity score,[8]; [19],0 DSS
same,drug sensitivity score,[8]; [20],0 DSS
same,drug sensitivity score,[8]; [21],0.933 ± 0.84 DSS
same,drug sensitivity score,[9]; [17],5.33 ± 4 DSS
same,drug sensitivity score,[9]; [18],9.3 ± 3.5 DSS
same,drug sensitivity score,[9]; [19],9.13 ± 1 DSS
same,drug sensitivity score,[9]; [20],8.97 ± 1.4 DSS
same,drug sensitivity score,[9]; [21],7.9 ± 0.78 DSS
same,drug sensitivity score,[10]; [17],9.13 ± 6.3 DSS
same,drug sensitivity score,[10]; [18],8.27 ± 5.5 DSS
same,drug sensitivity score,[10]; [19],7.23 ± 0.64 DSS
same,drug sensitivity score,[10]; [20],7.1 ± 2.2 DSS
same,drug sensitivity score,[10]; [21],4.53 ± 1.6 DSS
same,drug sensitivity score,[11]; [17],14.9 ± 3.1 DSS
same,drug sensitivity score,[11]; [18],15 ± 3.8 DSS
same,drug sensitivity score,[11]; [19],10.2 ± 0.74 DSS
same,drug sensitivity score,[11]; [20],14.7 ± 1.5 DSS
same,drug sensitivity score,[11]; [21],12.1 ± 2.3 DSS
same,drug sensitivity score,[12]; [17],9.4 ± 0.36 DSS
same,drug sensitivity score,[12]; [18],4.53 ± 0.57 DSS
same,drug sensitivity score,[12]; [19],9.17 ± 1.2 DSS
same,drug sensitivity score,[12]; [20],11.4 ± 1.6 DSS
same,drug sensitivity score,[12]; [21],10.4 ± 1.1 DSS
same,relative IC50,[13],0.519 nM
same,relative IC50,[14]; [17],5.49 nM
same,relative IC50,[14]; [20],2.26 nM
same,relative IC50,[14]; [21],7.63 nM
same,relative IC50,[15]; [19],1.13 nM
same,relative IC50,[15]; [20],0.543 nM
same,relative IC50,[15]; [21],0.857 nM
same,relative IC50,[16]; [19],2.16 nM
same,relative IC50,[16]; [20],2.23 nM
same,relative IC50,[16]; [21],1.66 nM

# From the supplement of paper PMC7017272
